Source: ChEMBL document CHEMBL5500323, “Plasmodium falciparum topoisomerases: Emerging targets for anti-malarial therapy” (Eur J Med Chem, 2024)

Assays:
[1] = Inhibition of DNA topoisomerase II (unknown origin); set-up: species or system Homo sapiens
[2] = Inhibition of recombinant Plasmodium falciparum strain 3D7 Gyrase B expressed in Escherichia coli BL21 (DE3)
[3] = molecular target: DNA gyrase (Escherichia coli, UniProt P0AES4+P0AES6); assay: Inhibition of Escherichia coli DNA gyrase ATPase activity incubated for 80 mins; assay type: protein-complex assay
[4] = Inhibition of Plasmodium falciparum NF54 Gyrase B
[5] = Inhibition of Plasmodium falciparum 3D7 Gyrase B
[6] = Inhibition of C-terminal 6His-tagged Plasmodium falciparum Gyrase B expressed in Escherichia coli
[7] = molecular target: T1, DNA topoisomerase 2 (Plasmodium falciparum K1, UniProt P41001); assay: Inhibition of Plasmodium falciparum isolate K1 DNA topoisomerase 2
T1 sequence (P41001 whole entry): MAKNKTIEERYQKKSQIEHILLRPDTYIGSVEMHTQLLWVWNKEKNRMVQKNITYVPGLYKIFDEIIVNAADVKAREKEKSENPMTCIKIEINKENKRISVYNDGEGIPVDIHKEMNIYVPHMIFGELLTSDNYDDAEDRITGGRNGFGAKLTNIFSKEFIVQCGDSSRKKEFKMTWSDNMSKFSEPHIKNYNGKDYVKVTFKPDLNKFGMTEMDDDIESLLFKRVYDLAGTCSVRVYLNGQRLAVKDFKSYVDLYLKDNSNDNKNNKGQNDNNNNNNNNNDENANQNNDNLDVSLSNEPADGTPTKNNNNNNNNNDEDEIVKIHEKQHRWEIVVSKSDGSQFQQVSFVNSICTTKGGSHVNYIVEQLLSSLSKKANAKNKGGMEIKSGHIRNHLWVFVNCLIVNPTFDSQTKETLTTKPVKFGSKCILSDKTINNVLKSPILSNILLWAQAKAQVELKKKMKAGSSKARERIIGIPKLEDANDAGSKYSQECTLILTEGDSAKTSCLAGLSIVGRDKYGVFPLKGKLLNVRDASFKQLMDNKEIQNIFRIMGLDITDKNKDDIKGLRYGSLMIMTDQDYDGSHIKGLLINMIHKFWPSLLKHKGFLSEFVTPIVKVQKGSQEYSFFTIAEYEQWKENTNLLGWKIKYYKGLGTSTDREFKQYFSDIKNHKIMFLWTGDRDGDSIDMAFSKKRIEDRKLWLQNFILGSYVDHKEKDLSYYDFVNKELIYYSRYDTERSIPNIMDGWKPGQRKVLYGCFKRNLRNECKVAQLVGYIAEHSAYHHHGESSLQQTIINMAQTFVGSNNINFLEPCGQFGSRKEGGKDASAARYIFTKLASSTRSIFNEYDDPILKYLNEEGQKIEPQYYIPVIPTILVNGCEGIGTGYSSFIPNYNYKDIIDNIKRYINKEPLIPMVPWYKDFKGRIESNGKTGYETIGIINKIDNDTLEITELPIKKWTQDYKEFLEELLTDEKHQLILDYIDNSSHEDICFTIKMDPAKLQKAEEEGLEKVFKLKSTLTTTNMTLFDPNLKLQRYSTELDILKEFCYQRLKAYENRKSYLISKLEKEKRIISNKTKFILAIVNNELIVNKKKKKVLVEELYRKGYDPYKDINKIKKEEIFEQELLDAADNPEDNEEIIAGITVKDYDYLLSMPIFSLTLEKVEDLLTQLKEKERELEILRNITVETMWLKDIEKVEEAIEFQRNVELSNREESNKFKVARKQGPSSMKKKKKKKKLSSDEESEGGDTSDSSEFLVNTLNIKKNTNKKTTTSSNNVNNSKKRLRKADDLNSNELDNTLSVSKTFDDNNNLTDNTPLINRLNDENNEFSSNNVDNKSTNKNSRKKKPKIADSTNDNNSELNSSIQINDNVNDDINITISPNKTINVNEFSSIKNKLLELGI

[8] = Inhibition of Plasmodium falciparum DNA topoisomerase VI

COc1ccc2ncc(C#N)c(CCN3CCC(NCc4cc5c(cn4)OCS5)CC3)c2c1
IC50 [1]: 0.6 µM

CO[C@@H]1[C@@H](OC(=O)c2ccc(C)[nH]2)[C@@H](O)[C@H](Oc2ccc3c(O)c(NC(=O)c4c[nH]c(C(=O)Nc5c(O)c6ccc(O[C@@H]7OC(C)(C)[C@H](OC)[C@@H](OC(=O)c8ccc(C)[nH]8)[C@H]7O)c(C)c6oc5=O)c4C)c(=O)oc3c2C)OC1(C)C
IC50 [2]: 40 µM

O=C1c2ccccc2C(=O)c2c1cc(S(=O)(=O)O)c(O)c2O [Alizarin Red S]
IC50 [3]: 55.6 µM

O=C(O)c1cn(C2CC2)c2cc(N3CCNCC3)c(F)cc2c1=O [CIPROFLOXACIN]
IC50 [1]: 35 µM

NC1CCN(c2c(F)cc3c(=O)c(C(=O)O)cn(C4CC4)c3c2Cl)C1 (configuration not stated) [CLINAFLOXACIN]
IC50 [4]: 3.2 µM

COc1cc([C@@H]2c3cc4c(cc3[C@@H](O[C@@H]3O[C@@H]5CO[C@@H](C)O[C@H]5[C@H](O)[C@H]3O)[C@H]3COC(=O)[C@H]23)OCO4)cc(OC)c1O [ETOPOSIDE]
IC50 [1]: 20 µM

C[n+]1c2cc(N)ccc2cc2ccc(N)cc21 [EUFLAVINE]
IC50 [5]: 1 µM

COc1c(N2CCNC(C)C2)c(F)cc2c(=O)c(C(=O)O)cn(C3CC3)c12 (configuration not stated) [GATIFLOXACIN]
IC50 [4]: 12 µM

CO[C@@H]1[C@@H](OC(N)=O)[C@@H](O)[C@H](Oc2ccc3c(O)c(NC(=O)c4ccc(O)c(CC=C(C)C)c4)c(=O)oc3c2C)OC1(C)C [NOVOBIOCIN]
IC50 [6]: 30 µM

O=c1c(O)cccc2cc(O)c(O)c(O)c12 [PURPUROGALLIN]
IC50 [3]: 9.56 µM

COc1ccc2nc3cc(Cl)ccc3c(Nc3cc(CN4CCCC4)c(O)c(CN4CCCC4)c3)c2n1 [PYRONARIDINE]
IC50 [7]: 5.5 µM

C[C@@H]1C[C@H]2O[C@@H]2/C=C\C=C\C(=O)Cc2c(Cl)c(O)cc(O)c2C(=O)O1 [RADICICOL]
IC50 [8]: 80 µM
